Measured values taken from ChEMBL document CHEMBL1201862, “PubChem BioAssay data set” (2004).
The source made the active and inactive calls.

Experiments:
[1] = molecular target: Envelope glycoprotein gp160 (Human immunodeficiency virus 1, UniProt Q6QLK5); experiment: inhibitors of HIV fusion peptide binding, primary screen, biochemical, uHTS, fluorescence dequenching (AID 1986)
Streptokinase A = molecular target: T1, Streptokinase A (Streptococcus pyogenes serotype M1, UniProt P10520); experiment: S. pyogenes streptokinase expression inhibitors, potency, dose response, plasminogen activation absorbance, OD405 (AID 1914); type: functional, Streptococcus pyogenes M1 GAS;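 note: secreted streptokinase activity via plasminogen activation per viability signal from cell pellet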
T1 sequence (P10520 whole entry): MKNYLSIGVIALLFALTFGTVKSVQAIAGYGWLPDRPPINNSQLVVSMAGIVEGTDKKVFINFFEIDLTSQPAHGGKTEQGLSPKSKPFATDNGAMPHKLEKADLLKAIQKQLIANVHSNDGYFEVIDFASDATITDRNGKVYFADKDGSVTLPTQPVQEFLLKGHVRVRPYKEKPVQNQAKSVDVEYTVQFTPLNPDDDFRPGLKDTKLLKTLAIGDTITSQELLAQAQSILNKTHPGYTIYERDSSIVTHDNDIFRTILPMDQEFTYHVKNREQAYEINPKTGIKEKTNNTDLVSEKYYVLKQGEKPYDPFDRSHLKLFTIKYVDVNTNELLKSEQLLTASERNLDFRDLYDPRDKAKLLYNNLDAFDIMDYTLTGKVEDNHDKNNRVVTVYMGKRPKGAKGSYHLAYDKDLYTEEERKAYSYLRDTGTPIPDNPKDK

[2] = molecular target: FAD-linked sulfhydryl oxidase ALR (Homo sapiens, UniProt P55789); experiment: inhibitors of human ALR sulfhydryl oxidase, dose response, biochemical, H2O2 detection, luminescence, cherry-pick (AID 493248)
[3] = tested on: Streptococcus sp. 'group A'; experiment: growth inhibition of control SK(-) GAS strain, dose response, counter-screen for streptokinase expression inhibitor project, luminescence, kanamycin, BacTiterGlo, confirmation (AID 1900); type: functional, organism-based
Streptococcus = experiment: Group A Streptococcus viability loss, dose response, counter-screen for streptokinase expression inhibitor project, luminescence, BacTiterGlo (AID 1915); type: functional, organism-based;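 note: potency for reduction of bacterial viability or growth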
[4] = molecular target: Voltage-dependent T-type calcium channel subunit alpha-1H (Homo sapiens, UniProt O95180); experiment: Cav3.2 T-type channel inhibitors, cell-based, synthetic library set 1, calcium flux (AID 493022); type: functional
CAAX prenyl protease 2 = CAAX prenyl protease 2 (Saccharomyces cerevisiae S288c, UniProt Q03530); type: biochemical
[5] = molecular target: T2, Ubiquitin-conjugating enzyme E2 N (Homo sapiens, UniProt P61088); type: functional;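 note: Dose-response confirmation in a TR-FRET assay detecting UBC13-driven polyubiquitin chain formation, inhibition measured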
T2 sequence (P61088 whole entry): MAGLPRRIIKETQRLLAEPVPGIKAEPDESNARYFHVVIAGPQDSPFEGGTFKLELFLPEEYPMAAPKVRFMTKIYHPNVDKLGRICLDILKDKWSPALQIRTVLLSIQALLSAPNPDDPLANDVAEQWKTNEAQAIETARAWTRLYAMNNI

[6] = molecular target: T3, DNA repair and recombination protein RAD54-like (Homo sapiens, UniProt Q92698); experiment: inhibitors of human RAD54 branch migration, confirmation, biochemical, fluorescence, cherry-picked samples, dose series (AID 651657); type: functional
T3 sequence (Q92698 whole entry): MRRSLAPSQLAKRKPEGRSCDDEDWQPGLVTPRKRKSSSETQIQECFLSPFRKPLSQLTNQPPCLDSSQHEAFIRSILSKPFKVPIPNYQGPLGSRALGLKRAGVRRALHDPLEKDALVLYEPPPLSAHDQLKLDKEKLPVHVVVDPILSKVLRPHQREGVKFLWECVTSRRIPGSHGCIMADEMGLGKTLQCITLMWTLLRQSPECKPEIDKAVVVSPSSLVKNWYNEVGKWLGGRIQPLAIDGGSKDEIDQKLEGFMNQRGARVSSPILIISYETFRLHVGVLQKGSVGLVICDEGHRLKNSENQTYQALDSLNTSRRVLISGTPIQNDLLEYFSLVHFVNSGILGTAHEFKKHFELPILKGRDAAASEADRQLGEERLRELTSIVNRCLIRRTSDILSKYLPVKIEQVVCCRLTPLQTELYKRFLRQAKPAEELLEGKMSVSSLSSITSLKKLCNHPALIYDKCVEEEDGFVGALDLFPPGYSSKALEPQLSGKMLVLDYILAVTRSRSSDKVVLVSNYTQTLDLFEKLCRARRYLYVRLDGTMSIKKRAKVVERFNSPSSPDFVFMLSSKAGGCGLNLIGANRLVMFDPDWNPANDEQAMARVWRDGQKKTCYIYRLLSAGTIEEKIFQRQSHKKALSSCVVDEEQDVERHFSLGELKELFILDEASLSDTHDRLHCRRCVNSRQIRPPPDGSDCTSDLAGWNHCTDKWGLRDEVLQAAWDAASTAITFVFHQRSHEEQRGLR

[7] = molecular target: T4, Short transient receptor potential channel 4 (Mus musculus, UniProt Q9QUQ5); experiment: TRPC4 positive allosteric modulators, dose response, cell-based, HEK293 TRPC4/mu-opioid, Fluo-4 calcium, EC20 DAMGO (AID 434941); type: functional
T4 sequence (Q9QUQ5 whole entry): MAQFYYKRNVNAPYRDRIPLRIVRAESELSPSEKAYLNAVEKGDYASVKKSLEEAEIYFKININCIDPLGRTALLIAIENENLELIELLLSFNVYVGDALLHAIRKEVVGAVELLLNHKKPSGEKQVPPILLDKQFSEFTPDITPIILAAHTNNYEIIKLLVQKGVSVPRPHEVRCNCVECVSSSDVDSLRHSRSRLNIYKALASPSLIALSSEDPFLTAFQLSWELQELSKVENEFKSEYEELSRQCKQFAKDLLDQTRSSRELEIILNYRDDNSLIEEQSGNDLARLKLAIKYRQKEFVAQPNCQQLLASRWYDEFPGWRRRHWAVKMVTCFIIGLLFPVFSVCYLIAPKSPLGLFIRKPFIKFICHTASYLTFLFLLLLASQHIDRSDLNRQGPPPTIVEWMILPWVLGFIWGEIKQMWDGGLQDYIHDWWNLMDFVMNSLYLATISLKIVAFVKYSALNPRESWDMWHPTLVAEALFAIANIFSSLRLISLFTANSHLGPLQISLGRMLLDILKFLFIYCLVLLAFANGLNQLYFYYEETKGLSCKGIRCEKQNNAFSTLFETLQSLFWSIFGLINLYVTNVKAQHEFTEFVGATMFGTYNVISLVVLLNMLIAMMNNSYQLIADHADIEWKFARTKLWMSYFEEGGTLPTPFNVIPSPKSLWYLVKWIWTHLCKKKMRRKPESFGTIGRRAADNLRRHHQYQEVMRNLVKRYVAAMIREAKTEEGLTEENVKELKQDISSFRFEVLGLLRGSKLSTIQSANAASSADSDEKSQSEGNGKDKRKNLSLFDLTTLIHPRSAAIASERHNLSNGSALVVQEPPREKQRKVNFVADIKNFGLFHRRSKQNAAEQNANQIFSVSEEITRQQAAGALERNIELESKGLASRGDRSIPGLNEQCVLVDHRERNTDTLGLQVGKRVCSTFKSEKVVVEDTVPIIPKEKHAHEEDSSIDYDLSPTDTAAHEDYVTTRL

Vero [8] = experiment: Vero E6 cell cytotoxicity, SAR follow-up, cytotoxicity control for West Nile virus antiviral project, synthesized analogs (AID 2244); type: functional; conditions: Chlorocebus sabaeus
[9] = HEp-2 cell cytotoxicity, dose response, cytotoxicity control for RSV inhibitor project, HTS (AID 2410); type: functional; conditions: human respiratory syncytial virus
[10] = molecular target: Endoplasmic reticulum aminopeptidase 1 (Homo sapiens, UniProt Q9NZ08); experiment: ERAP1 aminopeptidase inhibitors, dose response, biochemical, cherry-pick, set 2, plate reader (AID 743314)
[11] = A Cell Based Assay for the Identification of Probe candidate Compounds with Anti- Venezuelan Equine Encephalitis virus. [Related pubchem assays: 2409, 2419, 1621, 2238, 2405, 2024, 2065, 2402, 2414, 1635, 1650, 2244 ]; type: functional
Vero [12] = experiment: West Nile virus antiviral activity, cell-based, CPE readout (AID 1621); type: functional; conditions: Chlorocebus sabaeus
Vero [13] = experiment: cytotoxicity of synthesized analogs in Vero 76, SAR follow-up, cytotoxicity control for West Nile virus antiviral project, Vero 76 cells (AID 2414); type: functional; conditions: Chlorocebus sabaeus
Vero [14] = experiment: West Nile virus CPE inhibition, SAR follow-up, cell-based, synthesized analogs (AID 2238); type: functional; conditions: Chlorocebus sabaeus
Vero [15] = experiment: cells; type: functional; conditions: Chlorocebus sabaeus
Vero [16] = experiment: cells; type: functional, cell-based; conditions: Chlorocebus sabaeus
Vero [17] = experiment: cytotoxicity of synthesized analogs in Vero cells, SAR follow-up, cytotoxicity control for West Nile virus antiviral project, cell-based, set II (AID 2402); type: functional; conditions: Chlorocebus sabaeus
[18] = molecular target: NACHT, LRR and PYD domains-containing protein 3 (Homo sapiens, UniProt Q96P20); experiment: NALP3 inhibitors in yeast, dose response, luminescent (AID 488799); type: functional
Protein skinhead-1 = molecular target: T5, Protein skinhead-1 (Caenorhabditis elegans, UniProt P34707); type: functional
T5 sequence (P34707 whole entry): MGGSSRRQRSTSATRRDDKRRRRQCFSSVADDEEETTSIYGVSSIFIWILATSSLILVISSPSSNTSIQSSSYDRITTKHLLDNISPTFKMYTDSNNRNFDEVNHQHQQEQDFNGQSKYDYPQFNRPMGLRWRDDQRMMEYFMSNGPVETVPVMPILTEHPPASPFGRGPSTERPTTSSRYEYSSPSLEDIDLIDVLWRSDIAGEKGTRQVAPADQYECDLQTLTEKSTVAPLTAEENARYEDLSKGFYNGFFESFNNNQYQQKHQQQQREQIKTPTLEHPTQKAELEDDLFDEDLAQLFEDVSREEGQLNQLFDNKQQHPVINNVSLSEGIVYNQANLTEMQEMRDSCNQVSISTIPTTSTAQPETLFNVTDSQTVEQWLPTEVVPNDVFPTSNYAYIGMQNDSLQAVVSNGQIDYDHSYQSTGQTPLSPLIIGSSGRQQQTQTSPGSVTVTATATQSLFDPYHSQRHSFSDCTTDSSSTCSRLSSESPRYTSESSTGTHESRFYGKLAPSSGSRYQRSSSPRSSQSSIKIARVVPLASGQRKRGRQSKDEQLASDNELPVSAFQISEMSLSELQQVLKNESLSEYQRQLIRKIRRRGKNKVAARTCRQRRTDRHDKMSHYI

[19] = THP-1 cell cytotoxicity, dose response, cytotoxicity control for non-replicating M. tuberculosis project (AID 489025); type: functional
cells = type: functional
[20] = NIH-3T3 fibroblast cytotoxicity, dose response, cytotoxicity control, cell-based, fluorescence, Alamar Blue, secondary assay (AID 2327); type: functional;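 note: NIH-3T3 mouse fibroblasts cultured with fluconazole at 8 µg/mL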
[21] = C. albicans growth with fluconazole, confirmation, fluorescence, retest (AID 2467); type: functional, cell-based
[22] = Vero E6 cell cytotoxicity, dose response, cytotoxicity control for non-replicating M. tuberculosis project, secondary assay (AID 492998); type: functional, VeroE6; conditions: Vero C1008
Beta-galactosidase = Beta-galactosidase (Escherichia coli, UniProt Q8VNN2); experiment: beta-galactosidase enzyme inhibitors and activators, dose response, artefact control for CCR6 antagonist project, biochemical, E. coli enzyme, set 3 (AID 504712); type: functional
[23] = HepG2 cell cytotoxicity, dose response, cytotoxicity control for non-replicating M. tuberculosis project (AID 489018); type: functional; conditions: Mycobacterium tuberculosis
[24] = molecular target: Intestinal-type alkaline phosphatase (Homo sapiens, UniProt P09923); experiment: Dose Response confirmation of uHTS hits from a small molecule inhibitors of human intestinal alkaline phosphatase via a luminescent assay. [Related pubchem assays (depositor defined):AID2544, AID2574]; type: functional
Sequence of Intestinal-type alkaline phosphatase (P09923 whole entry): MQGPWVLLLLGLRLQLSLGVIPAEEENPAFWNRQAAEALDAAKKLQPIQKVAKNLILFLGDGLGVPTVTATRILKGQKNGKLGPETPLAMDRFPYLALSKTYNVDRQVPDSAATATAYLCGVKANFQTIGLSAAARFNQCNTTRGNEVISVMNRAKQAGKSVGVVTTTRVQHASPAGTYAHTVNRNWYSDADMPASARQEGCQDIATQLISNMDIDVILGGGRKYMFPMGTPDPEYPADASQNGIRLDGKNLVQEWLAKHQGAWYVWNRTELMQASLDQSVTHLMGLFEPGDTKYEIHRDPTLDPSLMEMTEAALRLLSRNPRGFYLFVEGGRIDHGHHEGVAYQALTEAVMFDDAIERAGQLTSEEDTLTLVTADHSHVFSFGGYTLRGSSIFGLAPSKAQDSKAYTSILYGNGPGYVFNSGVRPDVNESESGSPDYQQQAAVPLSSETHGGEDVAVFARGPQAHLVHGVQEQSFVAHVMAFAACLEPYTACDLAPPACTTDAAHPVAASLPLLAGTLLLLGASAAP

Sequence of Beta-galactosidase (Q8VNN2 whole entry): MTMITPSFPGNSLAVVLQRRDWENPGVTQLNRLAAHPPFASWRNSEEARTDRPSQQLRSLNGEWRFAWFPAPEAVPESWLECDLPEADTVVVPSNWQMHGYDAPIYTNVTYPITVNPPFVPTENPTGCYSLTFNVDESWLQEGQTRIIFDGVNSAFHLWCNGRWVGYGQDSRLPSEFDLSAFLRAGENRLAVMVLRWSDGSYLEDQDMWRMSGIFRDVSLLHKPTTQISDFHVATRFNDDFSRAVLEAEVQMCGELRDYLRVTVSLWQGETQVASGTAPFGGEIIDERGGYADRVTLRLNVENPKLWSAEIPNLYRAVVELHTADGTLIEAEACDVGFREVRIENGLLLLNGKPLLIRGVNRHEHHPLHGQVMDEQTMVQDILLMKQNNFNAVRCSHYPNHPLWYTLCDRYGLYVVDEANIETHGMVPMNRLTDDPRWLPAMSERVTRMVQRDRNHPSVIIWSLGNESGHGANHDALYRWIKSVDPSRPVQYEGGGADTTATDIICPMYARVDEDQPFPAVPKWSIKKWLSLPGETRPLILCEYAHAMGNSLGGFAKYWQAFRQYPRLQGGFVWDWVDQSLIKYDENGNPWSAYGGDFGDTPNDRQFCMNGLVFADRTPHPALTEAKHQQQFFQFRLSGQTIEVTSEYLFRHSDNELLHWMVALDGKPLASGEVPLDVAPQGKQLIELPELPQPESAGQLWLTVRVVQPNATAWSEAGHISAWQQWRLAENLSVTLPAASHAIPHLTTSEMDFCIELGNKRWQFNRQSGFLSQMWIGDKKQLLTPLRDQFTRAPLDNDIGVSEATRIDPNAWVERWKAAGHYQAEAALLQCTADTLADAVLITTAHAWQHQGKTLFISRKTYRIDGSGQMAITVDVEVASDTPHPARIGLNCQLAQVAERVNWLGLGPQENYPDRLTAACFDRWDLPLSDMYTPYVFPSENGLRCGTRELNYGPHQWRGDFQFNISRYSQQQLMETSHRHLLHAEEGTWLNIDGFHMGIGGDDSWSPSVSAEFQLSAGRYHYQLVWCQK
Sequence of Envelope glycoprotein gp160 (Q6QLK5 whole entry, the tested form may be a part): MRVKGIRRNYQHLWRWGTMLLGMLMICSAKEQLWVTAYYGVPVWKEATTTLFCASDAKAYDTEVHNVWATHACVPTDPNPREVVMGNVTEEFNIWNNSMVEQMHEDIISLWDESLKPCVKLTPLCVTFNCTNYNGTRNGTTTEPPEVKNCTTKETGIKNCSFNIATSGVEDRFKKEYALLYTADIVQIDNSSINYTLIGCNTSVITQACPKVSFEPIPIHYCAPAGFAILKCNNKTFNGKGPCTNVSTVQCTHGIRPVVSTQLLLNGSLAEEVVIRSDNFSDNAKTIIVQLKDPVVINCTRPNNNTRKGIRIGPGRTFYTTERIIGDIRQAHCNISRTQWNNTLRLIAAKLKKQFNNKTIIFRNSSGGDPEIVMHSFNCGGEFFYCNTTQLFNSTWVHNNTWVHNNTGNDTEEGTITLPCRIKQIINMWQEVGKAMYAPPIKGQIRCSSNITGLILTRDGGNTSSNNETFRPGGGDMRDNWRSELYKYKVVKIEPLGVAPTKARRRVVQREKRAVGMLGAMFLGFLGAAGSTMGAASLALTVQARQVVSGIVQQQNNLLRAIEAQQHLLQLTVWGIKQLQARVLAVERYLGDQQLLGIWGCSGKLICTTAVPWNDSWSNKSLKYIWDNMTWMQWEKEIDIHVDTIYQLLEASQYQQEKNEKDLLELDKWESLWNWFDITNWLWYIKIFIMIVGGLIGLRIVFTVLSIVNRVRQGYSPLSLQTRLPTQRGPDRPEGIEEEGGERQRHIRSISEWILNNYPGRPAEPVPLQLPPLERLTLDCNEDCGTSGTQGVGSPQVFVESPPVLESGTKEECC
Sequence of Endoplasmic reticulum aminopeptidase 1 (Q9NZ08 whole entry): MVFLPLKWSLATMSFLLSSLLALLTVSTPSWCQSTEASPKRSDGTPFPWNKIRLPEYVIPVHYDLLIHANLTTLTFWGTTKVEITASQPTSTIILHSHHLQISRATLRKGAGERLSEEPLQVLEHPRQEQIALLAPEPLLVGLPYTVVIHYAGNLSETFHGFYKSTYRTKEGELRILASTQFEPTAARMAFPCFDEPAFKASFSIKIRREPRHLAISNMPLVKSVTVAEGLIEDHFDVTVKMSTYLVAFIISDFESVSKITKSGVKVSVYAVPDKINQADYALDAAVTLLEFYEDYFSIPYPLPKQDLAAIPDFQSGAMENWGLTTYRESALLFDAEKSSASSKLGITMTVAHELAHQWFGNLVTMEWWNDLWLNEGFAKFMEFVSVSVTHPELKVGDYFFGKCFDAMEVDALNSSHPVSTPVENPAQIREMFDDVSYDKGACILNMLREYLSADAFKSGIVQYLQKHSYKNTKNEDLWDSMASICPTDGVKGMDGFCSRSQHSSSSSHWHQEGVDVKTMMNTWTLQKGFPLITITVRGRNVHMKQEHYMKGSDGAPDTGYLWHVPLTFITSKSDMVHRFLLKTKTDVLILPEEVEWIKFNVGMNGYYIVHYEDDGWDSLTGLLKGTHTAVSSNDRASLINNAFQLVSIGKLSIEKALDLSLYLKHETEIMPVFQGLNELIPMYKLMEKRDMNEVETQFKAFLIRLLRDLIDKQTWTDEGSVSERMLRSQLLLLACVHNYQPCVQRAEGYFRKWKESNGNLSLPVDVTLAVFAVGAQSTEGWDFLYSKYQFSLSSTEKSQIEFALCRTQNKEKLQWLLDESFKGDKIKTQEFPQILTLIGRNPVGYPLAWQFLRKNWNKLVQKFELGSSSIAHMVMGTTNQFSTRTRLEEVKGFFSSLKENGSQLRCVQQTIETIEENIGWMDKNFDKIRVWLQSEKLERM
Sequence of FAD-linked sulfhydryl oxidase ALR (P55789 whole entry): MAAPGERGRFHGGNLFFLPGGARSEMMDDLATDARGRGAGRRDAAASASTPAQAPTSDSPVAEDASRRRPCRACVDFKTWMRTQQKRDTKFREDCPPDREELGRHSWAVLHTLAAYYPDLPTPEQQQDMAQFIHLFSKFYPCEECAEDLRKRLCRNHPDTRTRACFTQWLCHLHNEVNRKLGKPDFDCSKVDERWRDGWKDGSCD
Sequence of NACHT, LRR and PYD domains-containing protein 3 (Q96P20 whole entry, the tested form may be a part): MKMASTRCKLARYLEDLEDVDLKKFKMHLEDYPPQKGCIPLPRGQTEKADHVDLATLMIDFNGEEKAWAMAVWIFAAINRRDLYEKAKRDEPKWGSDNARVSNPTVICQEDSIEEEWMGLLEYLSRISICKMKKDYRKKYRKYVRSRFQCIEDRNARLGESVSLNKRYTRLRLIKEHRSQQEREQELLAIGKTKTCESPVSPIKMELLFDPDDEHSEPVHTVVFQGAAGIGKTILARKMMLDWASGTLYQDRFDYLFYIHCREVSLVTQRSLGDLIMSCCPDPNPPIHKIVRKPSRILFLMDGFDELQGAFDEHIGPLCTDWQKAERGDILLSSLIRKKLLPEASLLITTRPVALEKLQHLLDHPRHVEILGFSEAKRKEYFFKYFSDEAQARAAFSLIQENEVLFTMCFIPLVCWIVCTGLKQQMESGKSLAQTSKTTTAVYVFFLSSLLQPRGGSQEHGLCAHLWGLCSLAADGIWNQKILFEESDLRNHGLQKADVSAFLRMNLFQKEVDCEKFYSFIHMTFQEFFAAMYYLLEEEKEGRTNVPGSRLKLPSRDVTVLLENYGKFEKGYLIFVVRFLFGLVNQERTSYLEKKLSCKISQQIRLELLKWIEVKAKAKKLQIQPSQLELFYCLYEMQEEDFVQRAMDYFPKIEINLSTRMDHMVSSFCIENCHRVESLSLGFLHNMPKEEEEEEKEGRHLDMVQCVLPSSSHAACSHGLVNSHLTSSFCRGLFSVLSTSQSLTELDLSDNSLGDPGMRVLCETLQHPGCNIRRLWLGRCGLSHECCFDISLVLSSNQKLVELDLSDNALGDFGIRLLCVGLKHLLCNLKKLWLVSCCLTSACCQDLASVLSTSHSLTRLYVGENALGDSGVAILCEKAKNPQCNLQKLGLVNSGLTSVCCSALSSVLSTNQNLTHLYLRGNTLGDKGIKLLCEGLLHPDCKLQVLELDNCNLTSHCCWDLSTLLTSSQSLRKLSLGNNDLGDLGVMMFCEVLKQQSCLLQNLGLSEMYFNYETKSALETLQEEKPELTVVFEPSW
Sequence of CAAX prenyl protease 2 (Q03530 whole entry): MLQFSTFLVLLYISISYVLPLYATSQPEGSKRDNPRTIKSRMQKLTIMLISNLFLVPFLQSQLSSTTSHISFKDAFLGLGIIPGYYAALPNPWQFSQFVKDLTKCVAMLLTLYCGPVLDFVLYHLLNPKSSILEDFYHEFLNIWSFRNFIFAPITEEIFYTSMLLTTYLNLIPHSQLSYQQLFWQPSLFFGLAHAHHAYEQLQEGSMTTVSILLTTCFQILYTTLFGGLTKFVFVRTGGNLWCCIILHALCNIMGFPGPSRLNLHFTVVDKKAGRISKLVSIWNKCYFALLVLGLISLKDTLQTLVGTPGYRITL

SMILES: O=C(O)c1cccc2c(-c3ccccc3)c(-c3ccccc3)[nH]c12
- IC50 [1]: 16.8 µM (active)
- EC50 (Streptokinase A): 15.6 µM (active)
- AC50 [2]: 4.56 µM (active)
- EC50 [3]: 6.24 µM (active)
- EC50 (Streptococcus): > 150 µM (not active)

SMILES: Cc1ccc(-c2nnc(NC(=O)COc3ccccc3F)o2)cc1C
- EC50 [4]: 2.3 µM (active)

SMILES: CCCCN(C)CCNC(=O)c1cc2c(-c3cccc(OC)c3)nn(C)c2s1
- AC50 (CAAX prenyl protease 2): 16 µM (active)
- IC50 [5]: > 20 µM (inactive)
- AC50 [6]: 31.5 µM (active)
- EC50 [7]: 0.07 µM (active)

SMILES: CC1CCCC(C)N1CCCNC(=O)c1cc2c(s1)-c1ccccc1OC2 (stereo not given)
- CC50 (Vero [8]): 12.4 µM (active)
- CC50 [9]: 18.2 µM (active)
- AC50 [10]: 12.5 µM (active)
- IC50 [11]: 11.8 µM (active)
- IC50 (Vero [12]): 19 µM (active)
- CC50 (Vero [13]): 24.3 µM (active)
- IC50 (Vero [14]): > 40 µM (active)
- CC50 (Vero [15]): > 25 µM (active)
- IC50 (Vero [16]): > 25 µM (active)
- CC50 (Vero [17]): 11 µM (active)

SMILES: Brc1ccc(-n2cnc(-c3ccccc3)c2)cc1
- IC50 [18]: 35.4 µM (active)
- IC50 (Protein skinhead-1): > 100 µM (inactive)

SMILES: CN(C)CCCNc1cc(C(C)(C)C)nc2c(-c3ccc(Cl)cc3)cnn12
- EC50 (Streptokinase A): > 150 µM (not active)
- CC50 [19]: 11.4 µM (active)
- IC50 (cells): 12.4 µM (active)
- IC50 [5]: > 20 µM (inactive)
- EC50 [20]: 12.5 µM (active)
- EC50 [21]: > 38 µM (not active)
- CC50 [22]: 10.8 µM (active)
- IC50 (Beta-galactosidase): > 66.6 µM (inactive)
- CC50 [23]: 13 µM (active)
- EC50 [3]: 1.91 µM (active)
- IC50 (Protein skinhead-1): > 100 µM (inactive)
- EC50 (Streptococcus): 8.08 µM (active)

SMILES: CC(=O)N1CCOc2ccc(S(=O)(=O)N3CCCC(C)C3)cc21 (stereo not given)
- IC50 [24]: > 100 µM (inactive)
